A short description of one series: in vivo. Set-up: species or system beagle dogs. The conditions noted are these: male, beagle, dog. As to the method: Two groups of three male beagle dogs weighing 9.0-10.7 kg and aged 8-30 months were fasted overnight before being administered the test article, MGBG, as either a single bolus intravenous dose of 1 mg/kg (Group 1) or as a single oral gavage dose of 10 mg/kg (Group 2). Dose formulation analysis verified administered dose solutions as within 17% of targeted concentrations of 1 and 10 mg/kg for Groups 1 and 2, respectively.
Blood samples (approximately 2.0 mL) were collected for plasma MGBG concentration measurement from all intravenously dosed animals prior to dosing and at approximately T=0.083 (5 min), 0.25 (15 min), 0.5 (30 min), 1, 2, 4, 8, and 24 hours after dosing. A similar procedure was used with orally dosed animals was used, except that collection took place at T=1, 2, 4, 8, 12, 24, and 36 hours after dosing. The samples were centrifuged under refrigerated conditions following completion of sample collection at each interval. The resulting plasma was separated and stored frozen at approximately −70° C. until analysis.

Series [1] concerns carrageenan-induced paw edema and hyperalgesia. The series can be described thus: Carrageenan paw test for edema and hyperalgesia. The format is in vivo, Swiss Webster mice. The text has this: Injection of carrageenan subcutaneously into the hind foot (paw) of a rat or mouse induces robust inflammation and pain. The inflammatory response begins 1-2 hrs post-carrageenan injection and persists for at least five hours following inoculation. In addition, the animal's inflamed hind paw is sensitive to noxious (hyperaglesia) or innocuous (allodynia) stimuli, compared to the contralateral hind paw. Compounds can be evaluated in this model for anti-hyperalgesia and anti-inflammatory activity. […] It is possible that some compounds will affect the inflamed paw and not affect the responses of the contralateral paw.
Embodiments of the carrageenan foot edema test are performed with materials, reagents and procedures essentially as described by Winter, et al., (Proc. Soc. Exp. Biol. Med., 111, 544 (1962)). Prophylactic and therapeutic embodiments have been developed, and are known in the art. The animals are evaluated for their responsiveness to noxious (paw pinch, plantar test) or innocuous (cold plate, von Frey filaments) stimuli. In the following protocol, mice were used.
Animals, compounds, and dosing. Healthy young male Swiss Webster mice in which weight variation of the mice will not exceed ±20% of the mean were used for the study. […]
Paw Edema. Immediately before sub-plantar administration of carrageenan and after 2, 3, 5 and 24 hours post carrageenan, mouse paw volume was measured using the plethysmometer (Ugo Basile). The assessment of edema was expressed as the mean increase in paw volume relative to control.
Assessment of Paw Withdrawal Latency. Prior to sub-plantar administration of carrageenan and after 0.5, 2, 3, 5, and 24 hours post-carrageenan, the latency of withdrawal response was determined by placing mice on a hot plate analgesia meter with surface temperature maintained at 51° C. […] Paw withdrawal latency is calculated as Δt=right paw withdrawal−left paw withdrawal. […]
(In general: In the carrageenan paw model, swelling and tenderness develop within hours.)

`CC(/C=N/NC(=N)N)=N\NC(=N)N` [MGBG, 1,1′[methylethanediylidene]dinitrilodiguanidine]: in “in vivo” (iv, 1 mg/kg), the AUC (commonly concentration integrated over time) worked out at 1410 ng·h/mL, the Clobs stood at 13.7 mL/min/kg, the highest level (Cmax) was 1180 ng/mL and the Tmax (commonly the time from dosing to the highest level) stood at 0.083 h. Further, in the series “in vivo” (iv, 1 mg/kg), the VSSobs is 14.6 L/kg and the half-life – broadly, the time needed for the level to fall by half in the phase considered – is 15.8 h. In addition, in “in vivo” (po, 10 mg/kg), the area under the curve (AUC) is 6290 ng·h/mL, the Clobs was found to be 8.29 mL/min/kg, the highest concentration (Cmax) (commonly the highest concentration seen after dosing) was 616 ng/mL and the Tmax turned out to be 1 h. Also, in the series “in vivo” (po, 10 mg/kg), the bioavailability – broadly, the share of a dose that reaches the circulation, judged against a reference dose that is usually intravenous – came out at 49% and the half-life is 15.5 h. Also, the reduction of edema entry in series [1] (mice, MGBG PO BID) is “efficacious”. Besides, the reduction of hyperalgesia entry in series [1] (mice, MGBG PO BID, hot plate paw withdrawal latency) is given as “efficacious”. The “efficacy at lower doses” value in series [1] (murine carrageenan models, 3 mg/kg PO BID and 10 mg/kg PO BID) was “efficacy”.

Values taken from patent US8258186B2, “Pharmaceutical for oral delivery comprising MGBG” (Pathologica, LLC, priority 2009, dated 2012).
